US7105652B2, “Human tumor suppressor gene” (Garvan Institute of Medical Research, priority 1997, dated 2006)
“Also recorded” adds a separate entry of the source. Numbered stars: 1 amine (or outer) side, 2 acyl side, 3 side chain; on linkers, the order of the positions; unused ones are H or OH. Bridge positions count the residues as written; N and C are the ends. Square brackets hold non-standard residues; d marks the D form. Peptide text beside a SMILES is read from it. I, II: the chains in the order shown. Actinocin(9to1) = Cc1c2oc3c(C)ccc(C(=O)[*:1])c3nc-2c(C(=O)[*:2])c(N)c1=O; NMeV = CN[C@H](C(=O)O)C(C)C; Sar = CNCC(=O)O

Key:
[1] = tested on: EDD mRNA; assay: Northern analysis of EDD mRNA in progestin-treated T-47D cells; assay type: cell-based, human
Method: (§1) The sources and maintenance of the human breast cancer and normal cell lines used were as described previously (12, 22), as were tissue culture experiments (12). Briefly, progestin (ORG 2058, 10 nM) and/or cycloheximide (20 μg/ml) or actinomycin D (5 μg/ml) was added to the medium and control flasks received the same volume of vehicle alone. To obtain RNA for differential display, cells were grown in insulin-supplemented serum-free medium and treated for 3 h with ORG 2058 or ethanol vehicle. Subsequent progestin stimulation experiments were carried out in medium containing 5% charcoal-stripped fetal calf serum without insulin.
Cells harvested from duplicate 150 cm^2 flasks were pooled, RNA extracted by a guanidinium-isothiocyanate-cesium chloride procedure and Northern analysis was performed as previously described with 20 μg of total RNA per lane (3, 23). The membranes were hybridized overnight (50° C.) with probes labelled with [a-^32P]dCTP (Amersham Australia Pty Ltd) using a Prime-a-Gene labelling kit (Promega Corp., Sydney, Australia). The membranes were washed at a highest stringency of 0.2 ¥ SSC (30 mM NaCl, 3 minN sodium citrate [pH 7.0])/1% sodium dodecyl sulfate at 65° C. and exposed to Kodak X-OMAT or BIOMAX film at −70° C. Human multiple tissue Northern blots or RNA Master blot (CLONTECH Laboratories Inc., Palo Alto, Calif.) were hybridized under conditions recommended by the manufacturer. The MRNA abundance was quantitated by densitometric analysis of autoradiographs using Molecular
Dynamics Densitometer and software (Molecular Dynamics, Sunnyvale, Calif.). The accuracy of loading was estimated by re-hybridizing membranes with a [g-^32P]ATP end-labelled oligonucleotide complementary to 18S rRNA (24, 25).

[2] = tested on: EDD; assay: Differential display RT-PCR of T-47D cells treated with ORG 2058; assay type: cell-based, human; settings: ORG 2058 for 3 h
Method: as §1
Differential display was carried out as previously described (11) using a Heiroglyph mRNA Profile Kit No. 1 (Genomyx Corporation, Foster City, Calif.) and recommended protocol. First strand cDNA synthesis was carried out in 96-well format 0.2 ml thin walled tubes. Typically 200 ng total RNA from T-47D cells treated with the synthetic progestin ORG 2058 for 3 h or from control T-47D cells was reverse transcribed with Expand Reverse Transcriptase enzyme (Boehringer Mannheim Pty Ltd, Castle Hill, Australia) following annealing with 4 pmol anchored primer (5′[…]12AC (SEQ ID NO:6)). […] The PCR products were denatured and separated on a 4.5% denaturing polyacrylamide gel at 800 v for 16 h using the Genomyx Long Read Sequencing System reagents and apparatus. […]

[3] = tested on: T-47D cells; settings: ORG 2058, same conditions, reference (3); cited from earlier work
[4] = molecular target: T1, GST-ubiquitin fusion protein (Homo sapiens, UniProt P0CG47); assay: Ubiquitin-binding assay (thiol ester formation); assay type: biochemical; settings: in vitro translated 35S-labelled protein, absence of DTT; abolished by 100 mM DTT
T1 construct: purified GST-ubiquitin fusion protein
Method: [^35S]-labelled in vitro translated truncated (˜100 kDa) or full length protein was tested for its ability to bind ubiquitin by incubating 5 μl translation reaction with or without 5 μg purified GST protein or GST-ubiquitin fusion protein for 10 min at 25° C. […] Reactions were terminated by incubating the mixtures in either SDS-sample buffer containing 100 mM DTT at 95° C. for 5 min or in SDS-sample buffer containing 4 M urea instead of DTT at 25° C. for 20 min. Samples were resolved by SDS-PAGE through 6% or 7% gels followed by drying and autoradiography.

CCC1CC2C3CCC4=CC(=O)CCC4C3CCC2(C)C1C(=O)CO (stereo not drawn) [ORG 2058, 16a-ethyl-21-hydroxy-19-norpregn-4-en-3,20-dione]
maximal EDD mRNA levels above control ([1]; progestin (ORG 2058), observed at 6 h, transient): 3 to 4 fold | abundance of EDD DD-PCR product, treated versus control [2]: more abundant in treated samples than in control samples; also recorded: present at a higher level | time of increase in the S phase fraction [3]: 12 to 14 h

Cc1c2oc3c(C)ccc(C(=O)N[C@@H]4C(=O)N[C@H](C(C)C)C(=O)N5CCC[C@H]5C(=O)N(C)CC(=O)N(C)[C@@H](C(C)C)C(=O)O[C@@H]4C)c3nc-2c(C(=O)N[C@@H]2C(=O)N[C@H](C(C)C)C(=O)N3CCC[C@H]3C(=O)N(C)CC(=O)N(C)[C@@H](C(C)C)C(=O)O[C@@H]2C)c(N)c1=O [actinomycin D, Actinomycin D] (I: T[dV]P[Sar][NMeV] / II: T[dV]P[Sar][NMeV]; ester I:1-I:C, II:1-II:C; linker I:N-II:N via Actinocin(9to1))
effect on ORG 2058 induction of EDD mRNA levels ([1]; 10 nM ORG 2058 with actinomycin D (5 μg/ml), 3 h): blocked

C[C@@H]1C[C@@H]([C@H](O)CC2CC(=O)NC(=O)C2)C(=O)[C@@H](C)C1 [cycloheximide, Cycloheximide]
effect on ORG 2058 induction of EDD mRNA levels ([1]; 10 nM ORG 2058 with cycloheximide (20 μg/ml), 1 h): prevented

B1: truncated EDD: 890 amino acid truncated EDD protein, aa 1910 to aa 2799, carboxyl terminus with HECT domain (protein)
chain: MMSARGDFLNYALSLMRSHNDEHSDVLPVLDVCSLKHVAYVFQALIYWIKAMNQQTTLDTPQLERKRTRELLELGIDNEDSEHENDDDTNQSATLNDKDDDSLPAETGQNHPFFRRSDSMTFLGCIPPNPFEVPLAEAIPLADQPHLLQPNARKEDLFGRPSQGLYSSSASSGKCLMEVTVDRNCLEVLPTKMSYAANLKNVMNMQNRQKKEGEEQPVLPEETESSKPGPSAHDLAAQLKSSLLAEIGLTESEGPPLTSFRPQCSFMGMVISHDMLLGRWRLSLELFGRVFMEDVGAEPGSILTELGGFEVKESKFRREMEKLRNQQSRDLSLEVDRDRDLLIQQTMRQLNNHFGRRCATTPMAVHRVKVTFKDEPGEGSGVARSFYTAIAQAFLSNEKLPNLECIQNANKGTHTSLMQRLRNRGERDREREREREMRRSSGLRAGSRRDRDRDFRRQLSIDTRPFRPASEGNPSDDPEPLPAHRQALGERLYPRVQAMQPAFASKITGMLLELSPAQLLLLLASEDSLRARVDEAMELIIAHGRENGADSILDLGLVDSSEKVQQENRKRHGSSRSVVDMDLDDTDDGDDNAPLFYQPGKRGFYTPRPGKNTEARLNCFRNIGRILGLCLLQNELCPITLNRHVIKVLLGRKVNWHDFAFFDPVMYESLRQLILASQSSDADAVFSAMDLAFAIDLCKEEGGGQVELIPNGVNIPVTPQNVYEYVRKYAEHRMLVVAEQPLHAMRKGLLDVLPKNSLEDLTAEDFRLLVNGCGEVNVQMLISFTSFNDESGENAEKLLQFKRWFWSIVEKMSMTERQDLVYFWTSSPSLPASEEGFQPMPSITIRPPDDQHLPTANTCISRLYVPLYSSKQILKQKLLLAIKTKNFGFV
formation of GST-ubiquitin / ubiquitin thioester conjugate [4]: an additional higher molecular mass protein band was observed
